Laboratory results reported in patent publication US20170348375A1, “DISLODGEMENT AND RELEASE OF HSC FROM THE BONE MARROW STEM CELL NICHE USING ALPHA9 INTEGRIN ANTAGONISTS” (COMMONWEALTH SCIENTIFIC AND INDUSTRIAL RESEARCH ORGANISATION, priority 2014, published 2017).
“Also recorded” adds a separate entry of the source.

Assays:
[1] = target: T1, human integrin α4β1 (overexpressed in LN18 α4β1 cells; pMSCV-hITGA4-IRES-hITGB1) (Homo sapiens, UniProt P05556+P13612); assay: Competitive inhibition of R-BC154 (50 nM) binding to LN18 α4β1 cells by BOP, flow cytometry
T1 construct: expressed in transfected cells; host or cells: LN18 human glioblastoma cells (ATCC CRL-2610), retrovirally transduced with pMSCV-hITGA4-IRES-hITGB1
T1 sequence (P13612 34-1032): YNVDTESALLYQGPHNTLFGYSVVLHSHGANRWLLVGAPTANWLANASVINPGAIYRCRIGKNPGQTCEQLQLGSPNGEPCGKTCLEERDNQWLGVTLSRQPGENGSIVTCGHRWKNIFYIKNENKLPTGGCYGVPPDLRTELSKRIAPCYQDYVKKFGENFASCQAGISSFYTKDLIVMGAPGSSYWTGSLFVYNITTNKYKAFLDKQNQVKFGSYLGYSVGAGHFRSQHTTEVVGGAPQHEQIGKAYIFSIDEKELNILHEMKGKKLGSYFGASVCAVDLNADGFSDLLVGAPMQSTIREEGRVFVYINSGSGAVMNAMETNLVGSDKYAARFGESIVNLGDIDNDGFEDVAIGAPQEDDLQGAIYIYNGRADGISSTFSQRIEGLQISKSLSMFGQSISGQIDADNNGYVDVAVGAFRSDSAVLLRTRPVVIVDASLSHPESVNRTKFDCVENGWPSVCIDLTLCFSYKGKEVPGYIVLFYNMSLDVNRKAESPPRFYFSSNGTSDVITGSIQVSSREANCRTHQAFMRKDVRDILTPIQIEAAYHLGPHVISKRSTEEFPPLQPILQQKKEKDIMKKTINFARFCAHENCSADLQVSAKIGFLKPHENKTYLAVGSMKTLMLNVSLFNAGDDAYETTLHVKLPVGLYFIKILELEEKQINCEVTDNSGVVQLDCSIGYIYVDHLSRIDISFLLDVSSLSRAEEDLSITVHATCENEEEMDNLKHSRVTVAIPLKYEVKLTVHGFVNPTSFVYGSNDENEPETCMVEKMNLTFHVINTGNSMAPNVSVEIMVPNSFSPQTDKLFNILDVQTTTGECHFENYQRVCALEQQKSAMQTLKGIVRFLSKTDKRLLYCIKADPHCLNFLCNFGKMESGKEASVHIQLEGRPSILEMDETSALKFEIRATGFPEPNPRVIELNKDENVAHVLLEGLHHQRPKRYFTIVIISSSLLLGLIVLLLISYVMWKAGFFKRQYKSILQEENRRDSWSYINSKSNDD
T1 sequence (P05556 21-798): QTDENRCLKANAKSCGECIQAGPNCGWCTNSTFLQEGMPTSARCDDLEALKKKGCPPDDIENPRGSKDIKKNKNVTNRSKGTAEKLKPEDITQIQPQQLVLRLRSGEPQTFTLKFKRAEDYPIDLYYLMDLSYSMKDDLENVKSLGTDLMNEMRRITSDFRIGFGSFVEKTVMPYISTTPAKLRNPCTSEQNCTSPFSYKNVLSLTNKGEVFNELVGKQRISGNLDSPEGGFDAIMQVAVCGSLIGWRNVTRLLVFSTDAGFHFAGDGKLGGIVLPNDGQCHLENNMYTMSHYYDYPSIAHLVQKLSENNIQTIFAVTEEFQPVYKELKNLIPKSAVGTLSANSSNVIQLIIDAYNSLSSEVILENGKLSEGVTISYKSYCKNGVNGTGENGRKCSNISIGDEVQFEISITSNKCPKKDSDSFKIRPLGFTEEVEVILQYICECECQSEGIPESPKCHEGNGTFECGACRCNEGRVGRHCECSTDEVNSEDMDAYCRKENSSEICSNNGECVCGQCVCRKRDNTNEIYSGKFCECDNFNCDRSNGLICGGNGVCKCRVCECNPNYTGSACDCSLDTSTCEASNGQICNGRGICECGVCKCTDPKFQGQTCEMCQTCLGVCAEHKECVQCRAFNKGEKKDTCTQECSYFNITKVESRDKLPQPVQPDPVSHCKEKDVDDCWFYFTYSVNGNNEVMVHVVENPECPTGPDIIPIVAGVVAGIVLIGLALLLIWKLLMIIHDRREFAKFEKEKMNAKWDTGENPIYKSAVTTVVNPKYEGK
Method: (§1) Stable LN18 cells over-expressing human integrin α4β1 and α9β1 were generated via retroviral transduction of human glioblastoma LN18 cell lines. Silencing of background α4 expression in parental and α9β1 transduced LN18 cells was achieved by retroviral vector delivery of α4 shRNA.
(§2) (a) Chemical structure of α9β1/α4β1 integrin antagonist BOP (2). […] Data is mean±SEM (n=3) (d) Analysis of the WBC, (e) LSK and (f) LSKSLAM content in the peripheral blood of mice treated with BOP (10 mg/kg) over 90 mins. Data is mean±SEM (n=5 per time point).
(§3) Flow cytometric analysis was performed using an LSR II (BD Biosciences) as previously described in J. Grassinger, et al Blood, 2009, 114, 49-59. […] For BM and PB analysis, up to 5×10^6 cells were analysed at a rate of 10-20 k cell events/sec. For analysis of PB LSKSLAM, up to 1×10^6 events were saved. Cell sorting was performed on a Cytopeia Influx (BD) as previously described in J. Grassinger, et al.
(§4) Stable LN18 cells ((ATCC number: CRL-2610) over-expressing integrin α4β1 (LN18 α4β1) or α9β1 (LN18 α9β1)) were generated by retroviral transduction using the pMSCV-hITGA4-IRES-hITGB1 and pMSCV-hITGA9-IRES-hITGB1 vectors as previously described in J Grassinger, et al Blood, 2009, 114, 49-59 and were maintained in DMEM supplemented with 2 mM L-glutamate in 10% FBS. […]

[2] = target: T2, human integrin α9β1 (overexpressed in LN18 α9β1 cells, α4-silenced; pMSCV-hITGA9-IRES-hITGB1) (Homo sapiens, UniProt P05556+Q13797); assay: Competitive inhibition of R-BC154 (50 nM) binding to LN18 α9β1 cells by BOP, flow cytometry
T2 construct: expressed in transfected cells; host or cells: LN18 human glioblastoma cells (ATCC CRL-2610), retrovirally transduced with pMSCV-hITGA9-IRES-hITGB1, α4 silenced with pSM2c-shITGA4
T2 sequence (Q13797 30-1035): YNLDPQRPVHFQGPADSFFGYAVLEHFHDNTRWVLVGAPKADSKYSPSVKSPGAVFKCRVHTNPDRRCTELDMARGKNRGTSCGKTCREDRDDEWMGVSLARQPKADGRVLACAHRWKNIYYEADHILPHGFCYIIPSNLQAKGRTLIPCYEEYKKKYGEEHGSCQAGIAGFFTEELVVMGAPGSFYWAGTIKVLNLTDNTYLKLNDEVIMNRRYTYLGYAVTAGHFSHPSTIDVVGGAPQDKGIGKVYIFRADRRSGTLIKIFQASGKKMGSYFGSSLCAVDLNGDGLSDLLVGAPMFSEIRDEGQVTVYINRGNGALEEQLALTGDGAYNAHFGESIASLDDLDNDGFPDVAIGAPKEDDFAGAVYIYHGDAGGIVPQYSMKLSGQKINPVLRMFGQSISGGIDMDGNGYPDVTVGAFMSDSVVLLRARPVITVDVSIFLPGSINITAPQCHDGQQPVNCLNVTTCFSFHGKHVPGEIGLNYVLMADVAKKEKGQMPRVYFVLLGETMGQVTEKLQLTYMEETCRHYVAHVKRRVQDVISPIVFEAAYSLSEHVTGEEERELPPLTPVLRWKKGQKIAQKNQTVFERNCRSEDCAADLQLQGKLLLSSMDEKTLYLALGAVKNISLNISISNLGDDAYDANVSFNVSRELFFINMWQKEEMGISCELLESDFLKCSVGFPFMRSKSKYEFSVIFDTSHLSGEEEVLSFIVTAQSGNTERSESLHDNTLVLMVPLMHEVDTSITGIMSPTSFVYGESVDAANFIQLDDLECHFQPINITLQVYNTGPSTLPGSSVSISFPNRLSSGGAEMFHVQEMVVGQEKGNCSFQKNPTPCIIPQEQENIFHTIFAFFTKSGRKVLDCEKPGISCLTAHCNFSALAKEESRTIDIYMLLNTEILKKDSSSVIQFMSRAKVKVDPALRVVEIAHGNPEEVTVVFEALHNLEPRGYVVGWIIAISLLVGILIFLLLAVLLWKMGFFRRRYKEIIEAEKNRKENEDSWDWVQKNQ
T2 sequence (P05556 21-798): as the sequence (P05556 21-798) above
Method: as §1, §2, §3, §4

α9β1 integrin = target: T3, α9β1 integrin (Homo sapiens, UniProt P05556+Q13797); assay: Competitive inhibition of R-BC154 binding to α9β1 LN18 cells; details: 1 mM Ca2+/Mg2+
T3 construct: expressed in transfected cells; host or cells: human glioblastoma LN18 (ATCC CRL-2610), retrovirally transduced; α4 silenced with pSM2c-shITGA4
T3 sequence (Q13797 30-1035): as the sequence (Q13797 30-1035) above
T3 sequence (P05556 21-798): as the sequence (P05556 21-798) above
Method: (§5) Cells were incubated for 90 min at 37° C., washed with PBS, pelleted by centrifugation and resuspended in PBS (200 μl) for flow cytometric analysis. % Max mean fluorescence intensity (MFI) was plotted against the log concentration of BOP and the data fitted to a ligand binding-sigmoidal dose-response curve and IC50 values obtained from graphs.

α4β1 integrin = target: T4, α4β1 integrin (Homo sapiens, UniProt P05556+P13612); assay: Competitive inhibition of R-BC154 binding to α4β1 LN18 cells; details: 1 mM Ca2+/Mg2+
T4 construct: expressed in transfected cells; host or cells: human glioblastoma LN18 (ATCC CRL-2610), retrovirally transduced
T4 sequence (P13612 34-1032): as the sequence (P13612 34-1032) above
T4 sequence (P05556 21-798): as the sequence (P05556 21-798) above
Method: as §5

[3] = system: α9β1 and α4β1 integrin binding on HSC and progenitors (LSK and LSKSLAM); assay: Competitive displacement of R-BC154 binding to LSK and LSKSLAM cells; type: cell-based, mouse; details: 500 nM, 1 mM Ca2+/Mg2+
Method: as §5

[4] = system: WBC, LSK and LSKSLAM in PB; assay: Mobilization of HSC and progenitors into peripheral blood; type: in vivo, mouse
Method: For mobilization experiments, all mice received subcutaneous injections at 100 μl/10 gm body weight and PB was harvested by throat bleed using EDTA coated syringes.

[5] = system: α4β1 and α9β1 integrins binding to VCAM-1 and Opn; details: in vitro; cited from earlier work
α9β1 = α9β1 (Homo sapiens, UniProt P05556+Q13797); details: Pepinsky et al (2002) FIG. 4b; cited from earlier work
α9β1, sequence (Q13797 30-1035): as the sequence (Q13797 30-1035) above
α9β1, sequence (P05556 21-798): as the sequence (P05556 21-798) above

| IC50 [1] | IC50 [2] | inhibition of α9β1 integrin (competitive inhibition of R-BC154 binding) (α9β1 integrin) | inhibition of α4β1 integrin (competitive inhibition of R-BC154 binding) (α4β1 integrin) | Structure (SMILES) | inhibition of α9β1 and α4β1 integrin binding on HSC and progenitors (displacement of R-BC154) [3] | PB WBC, LSK and LSKSLAM compared to the saline control ([4]; 10 mg/kg, C57BL/6 mice, up to 90 mins) | mobilization of HSC with long-term multi-lineage engraftment potential ([4]; summary statement) | inhibition of binding of α4β1 and α9β1 integrins to VCAM-1 and Opn [5] | off-rates for α9β1 compared to α4β1 (α9β1) |
| --- | --- | --- | --- | --- | --- | --- | --- | --- | --- |
| 2.39 nM | 2.62 nM |  |  | O=C(O)[C@H](Cc1ccc(OC(=O)N2CCCC2)cc1)NC(=O)[C@@H]1CCCN1S(=O)(=O)c1ccccc1 [BOP (2), N-(Benzenesulfonyl)-L-prolyl-L-O-(1-pyrrolidinylcarbonyl)tyrosine] |  |  |  |  |  |
|  |  | potent inhibitor | potent inhibitor | O=C(O)[C@H](Cc1ccc(OC(=O)N2CCCC2)cc1)NC(=O)[C@@H]1CCCN1S(=O)(=O)c1ccccc1 [BOP, N-(Benzenesulfonyl)-L-prolyl-L-O-(1-pyrrolidinylcarbonyl)tyrosine] | effectively inhibited | significant increases | effectively and rapidly mobilized | nanomolar inhibitory potencies; also recorded: can inhibit | significantly reduced off-rates |
